Patent US20210030735A1 (Tesaro, Inc., priority 2018, published 2021)
In brackets after ≈: the same amount, converted by molar mass. Read-outs that look alike come from different tables or passages of the source.

Legend:
[1] = drug substance
Procedure: The particle size analyzer can determine particle size using low-angle laser light scattering and calculates results in % volume based on equivalent spheres. Volume distributions for the D10, D50, D90, D4,3, and D3,2 can be determined. The suspension is added to the tank until the obscuration is in range, targeting a 10% obscuration. Measurements are taken once the obscuration remains consistent.
These batches were divided into sub-lots at various time intervals and each sub-lot was analyzed for content uniformity. The batches used are described in Table 12.

juvenile rats = details: rat, in vivo, 1 month
beagle dogs = details: dog, in vivo, 1 month
[2] = test system: platinum-sensitive recurrent epithelial ovarian, fallopian tube, or primary peritoneal cancer; details: for PFS Median: niraparib 300 mg QD; for HR, CFI / HR, TFST: niraparib versus placebo
Text: All patients had received at least two prior platinum-containing regimens and were in response (complete or partial) to their most recent platinum-based regimen. Eligible patients were assigned to one of two cohorts based on the results of a germline BRCA mutation test. […] Randomization occurred within 8 weeks of the last dose of the most recent platinum-containing regimen. […] Clinic visits occurred each cycle (4 weeks ±3 days). […] Prior to unblinding of the study, tumors of patients randomized to the non-gBRCAmut cohort were tested for the presence of homologous recombination deficiency (HRD) using the Myriad myChoice® HRD test, which evaluates three independent biomarkers of tumor genome instability: loss of heterozygosity, telomeric allelic imbalance, and large-scale state transitions. Tumors with homologous recombination deficiencies and those with somatic BRCA mutations were defined as HRD positive (HRDpos). The primary efficacy analysis for PFS was prospectively defined and assessed for the gBRCAmut cohort. The primary efficacy analysis for PFS was prospectively defined and assessed for the non-gBRCAmut cohort with a hierarchical testing schema. In the first step, PFS was assessed in the group of patients with HRDpos tumors and if significant, PFS was assessed in the overall non-gBRCAmut cohort. Secondary efficacy endpoints included chemotherapy-free interval (CFI), time to first subsequent therapy (TFST), PFS after the first subsequent therapy (PFS2), time to second subsequent therapy (TSST) and OS (overall survival).

[3] = test system: recurrent solid tumors that exhibit a BRCAness mutational signature; details: oral niraparib in combination with TSR-042, patients between 6 months and 18 years
in vivo = details: tumor, 50 mg/kg

Cc1ccc(S(=O)(=O)O)cc1.NC(=O)c1cccc2cn(-c3ccc([C@@H]4CCCNC4)cc3)nc12 [niraparib tosylate monohydrate, 2-{4-[(3S)-piperidin-3-yl]phenyl}-2H-indazole 7-carboxamide 4-methylbenzenesulfonate hydrate (1:1:1)]
bulk density [1]: 0.34-0.45 g/cc | tapped density [1]: 0.53-0.66 g/cc

NC(=O)c1cccc2cn(-c3ccc([C@@H]4CCCNC4)cc3)nc12 [Niraparib, niraparib]
tumor regression (tumor models; 50 mg/kg, daily dosing): tumor regression | tumor regression (tumor models; dose of 75 mg/kg, same model): did not result in tumor regression | no-observed-adverse-effect-level (juvenile rats): 10 mg/kg/day | no-observed-adverse-effect-level (beagle dogs): 6 mg/kg/day | PFS Median ([2]; HRDpos group of the non-gBRCAmut cohort, N = 106): 12.9 months | Median CFI (chemotherapy-free interval) ([2]; gBRCAmut cohort): 22.8 months | Median TFST (time to first subsequent therapy) ([2]; gBRCAmut cohort): 21.0 months | PFS Median ([2]; gBRCAmut cohort, N = 138): 21.0 months | HR, CFI ([2]; gBRCAmut cohort): 0.26 | HR, TFST ([2]; gBRCAmut cohort): 0.31 | Median CFI (chemotherapy-free interval) ([2]; non-gBRCAmut cohort): 12.7 months | Median TFST (time to first subsequent therapy) ([2]; non-gBRCAmut cohort): 11.8 months | HR, CFI ([2]; non-gBRCAmut cohort): 0.50 | HR, TFST ([2]; non-gBRCAmut cohort): 0.55 | PFS Median ([2]; overall non-gBRCAmut cohort, N = 234): 9.3 months | treatment of pediatric cancer patients, result of the study [3]: can be used successfully | concentration at 6 h (in vivo): 4570 ng/mL | pKa (physchem): 9.95 | solubility (physchem; aqueous media across the physiological pH range, aqueous buffer): 700 to 1100 µg/mL (≈ 2180 to 3430 µM)
